PubChem BioAssay AID1963441 (Molecular Pharmacology Branch, DTP, NCI, 2024)

System: NCI-H1876 complex spheroid growth, % test/control
Assay: Anticancer human tumor NCI-H1876 cell line growth inhibition [Asc];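 also: compound exposure lasted 7 days starting three days after seeding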;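 as to viability, T/C: 100% = DMSO vehicle control wells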
Conditions: for IC50: curve of first compound; for viability, T/C: stronger effect = lower value; active = viability on the fitted dose curve at most 10% of control; inactive = the rest
Method in brief: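 Spheroid model: tumor line + HUVEC + hMSC. Single agents and combinations; top conc. at/near clinical Cmax (10 microM if undetermined), half-log dilutions. DMSO stocks at 800-fold test concentration.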

Cc1nc(N2CCC3(CC2)COC(C)C3N)c(CO)nc1Sc1ccnc(N)c1Cl (centres undefined) + CNC(C)C(=O)NC1CN(S(=O)(=O)c2cccc(S(=O)(=O)N3CCC4CCC(C(=O)NC(c5ccccc5)c5ccccc5)N4C(=O)C(NC(=O)C(C)NC)C3)c2)CCC2CCC(C(=O)NC(c3ccccc3)c3ccccc3)N2C1=O
> 3 µM: IC50 (second compound 0.00316 µM) | IC50 (second compound 0.01 µM) | IC50 (second compound 0.0316 µM) | IC50 (second compound 0.1 µM) | IC50 (second compound 0.316 µM) | IC50 (second compound 1 µM)
inactive: viability, T/C (second compound 0.00316 µM, first compound 0.00949 µM) 100% | viability, T/C (second compound 0.00316 µM, first compound 0.03 µM) 92.7% | viability, T/C (second compound 0.00316 µM, first compound 0.0949 µM) 91.2% | viability, T/C (second compound 0.00316 µM, first compound 0.3 µM) 80.7% | viability, T/C (second compound 0.00316 µM, first compound 0.949 µM) 92.6% | viability, T/C (second compound 0.00316 µM, first compound 3 µM) 79.8% | viability, T/C (second compound 0.01 µM, first compound 0.00949 µM) 91.7% | viability, T/C (second compound 0.01 µM, first compound 0.03 µM) 91.9% | viability, T/C (second compound 0.01 µM, first compound 0.0949 µM) 92.7% | viability, T/C (second compound 0.01 µM, first compound 0.3 µM) 81.2% | viability, T/C (second compound 0.01 µM, first compound 0.949 µM) 85.7% | viability, T/C (second compound 0.01 µM, first compound 3 µM) 92.1% | viability, T/C (second compound 0.0316 µM, first compound 0.00949 µM) 94.4% | viability, T/C (second compound 0.0316 µM, first compound 0.03 µM) 86.1% | viability, T/C (second compound 0.0316 µM, first compound 0.0949 µM) 98.8% | viability, T/C (second compound 0.0316 µM, first compound 0.3 µM) 84.8% | viability, T/C (second compound 0.0316 µM, first compound 0.949 µM) 87.6% | viability, T/C (second compound 0.0316 µM, first compound 3 µM) 89% | viability, T/C (second compound 0.1 µM, first compound 0.00949 µM) 93.9% | viability, T/C (second compound 0.1 µM, first compound 0.03 µM) 88.4% | viability, T/C (second compound 0.1 µM, first compound 0.0949 µM) 82.9% | viability, T/C (second compound 0.1 µM, first compound 0.3 µM) 86.5% | viability, T/C (second compound 0.1 µM, first compound 0.949 µM) 86.4% | viability, T/C (second compound 0.1 µM, first compound 3 µM) 84.3% | viability, T/C (second compound 0.316 µM, first compound 0.00949 µM) 94% | viability, T/C (second compound 0.316 µM, first compound 0.03 µM) 93.8% | viability, T/C (second compound 0.316 µM, first compound 0.0949 µM) 87.9% | viability, T/C (second compound 0.316 µM, first compound 0.3 µM) 92.7% | viability, T/C (second compound 0.316 µM, first compound 0.949 µM) 85.9% | viability, T/C (second compound 0.316 µM, first compound 3 µM) 77.2% | viability, T/C (second compound 1 µM, first compound 0.00949 µM) 94% | viability, T/C (second compound 1 µM, first compound 0.03 µM) 91.8% | viability, T/C (second compound 1 µM, first compound 0.0949 µM) 94.4% | viability, T/C (second compound 1 µM, first compound 0.3 µM) 90.5% | viability, T/C (second compound 1 µM, first compound 0.949 µM) 84.5% | viability, T/C (second compound 1 µM, first compound 3 µM) 74.8%

O=C(c1cc(Cc2n[nH]c(=O)c3ccccc23)ccc1F)N1CCN(C(=O)C2CC2)CC1 + Cc1c(S(C)(=O)=O)c(-c2cc(F)cc(N3CCN(c4ccc(NS(=O)(=O)c5ccc(NC(CCN6CCC(C(=O)OCCCP(=O)(O)O)CC6)CSc6ccccc6)c(S(=O)(=O)C(F)(F)F)c5)cc4)CC3)c2)c(-c2ccc(Cl)cc2)n1C(C)C
inactive: viability, T/C (second compound 0.0316 µM, first compound 0.0316 µM) 99.6% | viability, T/C (second compound 0.0316 µM, first compound 0.1 µM) 99.1% | viability, T/C (second compound 0.0316 µM, first compound 0.316 µM) 92.8% | viability, T/C (second compound 0.0316 µM, first compound 1 µM) 101% | viability, T/C (second compound 0.0316 µM, first compound 3.16 µM) 97.2% | viability, T/C (second compound 0.0316 µM, first compound 10 µM) 74% | viability, T/C (second compound 0.1 µM, first compound 0.0316 µM) 100% | viability, T/C (second compound 0.1 µM, first compound 0.1 µM) 90.9% | viability, T/C (second compound 0.1 µM, first compound 0.316 µM) 98.2% | viability, T/C (second compound 0.1 µM, first compound 1 µM) 96.2% | viability, T/C (second compound 0.1 µM, first compound 3.16 µM) 95.9% | viability, T/C (second compound 0.1 µM, first compound 10 µM) 73.6% | viability, T/C (second compound 0.316 µM, first compound 0.0316 µM) 90.2% | viability, T/C (second compound 0.316 µM, first compound 0.1 µM) 96.7% | viability, T/C (second compound 0.316 µM, first compound 0.316 µM) 93.5% | viability, T/C (second compound 0.316 µM, first compound 1 µM) 97.9% | viability, T/C (second compound 0.316 µM, first compound 3.16 µM) 96% | viability, T/C (second compound 0.316 µM, first compound 10 µM) 61.2% | viability, T/C (second compound 1 µM, first compound 0.0316 µM) 111% | viability, T/C (second compound 1 µM, first compound 0.1 µM) 97.7% | viability, T/C (second compound 1 µM, first compound 0.316 µM) 90.1% | viability, T/C (second compound 1 µM, first compound 1 µM) 102% | viability, T/C (second compound 1 µM, first compound 3.16 µM) 99.2% | viability, T/C (second compound 1 µM, first compound 10 µM) 49.8% | viability, T/C (second compound 3.16 µM, first compound 0.0316 µM) 101% | viability, T/C (second compound 3.16 µM, first compound 0.1 µM) 94.5% | viability, T/C (second compound 3.16 µM, first compound 0.316 µM) 97.1% | viability, T/C (second compound 3.16 µM, first compound 1 µM) 96% | viability, T/C (second compound 3.16 µM, first compound 3.16 µM) 86.8% | viability, T/C (second compound 3.16 µM, first compound 10 µM) 43.6% | viability, T/C (second compound 10 µM, first compound 0.0316 µM) 95.2% | viability, T/C (second compound 10 µM, first compound 0.1 µM) 98.9% | viability, T/C (second compound 10 µM, first compound 0.316 µM) 86.1% | viability, T/C (second compound 10 µM, first compound 1 µM) 90.1% | viability, T/C (second compound 10 µM, first compound 3.16 µM) 95.3% | viability, T/C (second compound 10 µM, first compound 10 µM) 38.1%
> 10 µM: IC50 (second compound 0.0316 µM) | IC50 (second compound 0.1 µM) | IC50 (second compound 0.316 µM)
7.79 µM: IC50 (second compound 10 µM)
9.96 µM: IC50 (second compound 1 µM)
8.47 µM: IC50 (second compound 3.16 µM)
